Tests used:
[1] = tested on: lipid peroxidation of soy bean phospholipids; assay: Ascorbate/Fe^2+-dependent lipid peroxidation; type: biochemical; conditions: inhibition of ascorbate/Fe^2+-dependent lipid peroxidation by 50%; pH 7.4, room temperature, 30 min
Source text: (§1) The most important feature of the compounds of the invention is their efficacy as free-radical scavengers or antioxidants. An assay system measuring the concentration of the compounds of formulas (IA) and (IB) required to inhibit lipid peroxidation by 50% (IC50) was used. Other assays described below are the red blood cell fragility test used for measuring membrane stabilisation by indenoindoles. (Table 2), and protection by indenoindoles against cytotoxicity of N-methyl-N'-nitro-N-nitrosoguanidine (MNNG) in rat hepatocytes (Table 3). MNNG is a highly cytotoxic agent, the mechanism of action of which may involve a radical-mediated membrane destabilization.
For the ferrous/ascorbate lipid peroxidation system, 6.25 ml of 0.1 M potassium phosphate buffer (KPi), pH 7.4, was added to 12.5 mg dried soy bean phospholipids. After flushing with argon for 2 min, the suspension was sealed with five layers of Parafilm and sonicated until the suspension was translucent. The final reaction mixture was composed of 200 μg/ml phospholipid, 10 μM FeNH4 (SO4)2 or Fe(NH4)2 (SO4)2, and 100 μM ascorbic acid in 0.1 M KPi (pH 7.4), and the antioxidant to be tested in acetone or DMSO. The volume of vehicle never exceeded 1% of the total volume. The reaction was initiated by the addition of ascorbic acid plus iron. The reaction was continued at room temperature in a shaking water bath for 30 min and then stopped by the addition of […] of 0.5 M butylated hydroxytoluene in DMSO. The above procedure and the subsequent determination of 2-thibarbituric acid-reactive material is described in: Shertzer, H. G. et al, Biochem. Pharmacol. 37, 333 (1988).

red blood cells = assay: Membrane stabilization in red blood cells (red blood cell fragility test); type: cell-based, rat; conditions: linear regression slope: percentage protection against osmolysis per μM protecting agent; pH 7.4
Source text: as §1
The membrane stabilization effect of indenoindoles was assayed by the red blood cell fragility test. Rats were anesthetized with 65 mg phenobarbital per kg body weight by i.p. injection. Blood samples were removed into a heparinized syringe from the left ventricle and diluted 20-fold with buffer containing 140 mM NaCl, 10 mM sodium citrate and 5 mM glucose (pH 7.4) at 0° C. Diluted blood was kept on ice. A 0.75 ml aliquot of blood was added to a 4 ml cuvette containing 10 μl of the antioxidant dissolved in DMSO vehicle. After I min of gentle swirling, 0.75 ml of 0.9 NaCl or H2 O were added to the cuvette by forceful pipetting, and the absorbance at 656 nm was recorded with a Beckman DU-70 spectrophotometer. When H2 O was added in the absence of a stabilizing agent, absorbance decreased within 15 sec to 0.8. Addition of NaCl instead of H2 O gave a time-independent absorbance of 2.2. In the presence of increasing concentrations of stabilizing chemicals, the absorbance decrease observed after the addition of water was diminished. The % protection from osmolysis was obtained from the equation [[(2.2-0.8)- A]/(2.2-0.8)]×100%, where A=2.2 minus the absorbance decrease when water is added in the presence of a known concentration of chemical. The % protection is then plotted against several concentrations of the chemical being treated. The red blood cell fragility protective index value (RBC-PIV) is the linear regression slope of this plot, expressed as the percentage protection against osmolysis per μM protecting agent.

rat hepatocytes = assay: Protection against cytotoxic effects of MNNG in hepatocytes; type: cell-based, rat (male Sprague-Dawley); conditions: Hepatocyte, concentration of compound required to extend by 1 hour the time needed for MNNG to kill 50% of the viable cells, 0.5 mM MNNG
Source text: as §1
The protective effects of indenoindoles on MNNG-induced cytotoxicity was assayed with rat hepatocytes. Hepatocytes were prepared from male Sprague-Dawley rats by collagenase treatment as originally described by Zahlten and Stratman (Zahlten, R. N. and Stratman, F. W., Arch. Biochem. Biophys. 163, 600 (1988)), as modified by Reitman et al. (Reitman, F. A. Shertzer, H. G. and Berger, M. L., Biochem. Pharmacol. 37, 3183 (1988)). In order to improve viability, cells were centrifuged through 0.508g/ml Percoll (Pharmacia AB, Uppsala, Sweden) in 137 mM NaCl, 8.1 mM Na2 HPO4 and 1.5 mM KH2 PO4 (pH 7.4). Putative protecting agents were added to the cells as solutions in DMSO, with the final concentration of DMSO never exceeding 5 μl/ml of cell suspension. MNNG was added to a concentration of 0.5 mM as a solution in ethanol, giving a final concentration of ethanol of 1%; ethanol alone was by itself without effect. Viability was determined as the percentage of cells that excluded 0.2% trypan blue. Values are the concentration of compound required to extend by 1 hour, the time needed for MNNG to kill 50% of the viable cells.

mouse liver microsomes = conditions: NADPH-fortified mouse liver microsomes, initiated with CCl4; FASEB J. 2, A 407 (1988); cited from earlier work
lipid peroxidation = conditions: Fd Chem. Toxicol. 26, 517 (1988); cited from earlier work

SMILES | pIC50 [1] | RBC-PIV (red blood cell fragility protective index value) (red blood cells) [%/μM] | further results
c1ccc2c(c1)Cc1[nH]c3ccccc3c1-2 [iso-DHII, 5,6-Dihydroindeno[2,1-b]indole] | 5.8 | 0.50 | IC50 (rat hepatocytes): 3.4 µM; inhibition of lipid peroxidation (mouse liver microsomes): inhibiting lipid peroxidation
Cc1c(C)c2c(c(C)c1O)CCC(C)(CCCC(C)CCCC(C)CCCC(C)C)O2 (stereo not drawn) [α-Tocopherol (Vitamin E), α-Tocopherol, reference compound] | 5.0 | 0.10 | 
c1ccc2c(c1)Cc1c-2[nH]c2ccccc12 [DHII, 5,10-Dihydroindeno[1,2-b]indole] | 5.8 | 0.49 | IC50 (rat hepatocytes): 3.1 µM; inhibition of lipid peroxidation (mouse liver microsomes): inhibiting lipid peroxidation; inhibition of lipid peroxidation (lipid peroxidation): potent inhibitor of lipid peroxidation
Cc1ccc2[nH]c3c(c2c1)Cc1ccccc1-3 [8-Methyl-DHII, 5,10-Dihydro-8-methylindeno[1,2-b]indole] | 5.7 |  | 
CCNc1ccc2c(c1)Cc1c-2[nH]c2ccccc12 [2-Ethylamino-DHII, 5,10-Dihydro-2-(N-ethylamino)indeno[1,2-b] indole] | 7.9 |  | 
Fc1ccc2[nH]c3c(c2c1)Cc1ccccc1-3 [8-Fluoro-DHII, 5,10-Dihydro-8-fluoroindeno[1,2-b]indole] | 5.6 |  | 
COc1ccc2[nH]c3c(c2c1)-c1ccccc1C3 [9-Methoxy-iso-DHII, 5,6-Dihydro-9-methoxyindeno[2,1-b]indole] | 6.4 |  | 
Clc1cccc2c3c([nH]c12)-c1ccccc1C3 [6-Chloro-DHII, 5,10-Dihydro-6-chloroindeno[1,2-b]indole] | 5.2 |  | 
Cn1c2c(c3ccccc31)Cc1ccccc1-2 [5-Methyl-DHII, 5,10-Dihydro-5-methylindeno[1,2-b]indole] | 5.1 | 0.74 | IC50 (rat hepatocytes): 6 µM
CC(C)c1ccc2[nH]c3c(c2c1)Cc1ccccc1-3 [8-Isopropyl-DHII, 5,10-Dihydro-8-iso-propylindeno[1,2-b]indole] | 5.6 |  | 
CCN(CC)c1ccc2c(c1)Cc1c-2[nH]c2ccccc12 [2-Diethylamino-DHII, 5,10-Dihydro-2-(N,N-diethylamino)indeno[1,2-b]indole] | 7.4 |  | 
CC1c2ccccc2-c2[nH]c3ccccc3c21 (centres unmarked) [10-Methyl-DHII, 5,10-Dihydro-10-methylindeno[1,2-b]indole] | 5.7 |  | 
CC1(C)c2ccccc2-c2[nH]c3ccccc3c21 [10,10-Dimethyl-DHII, 5,10-Dihydro-10,10-dimethylindeno[1,2-b]indole] | 6.1 | 0.48 | 
COc1ccc2[nH]c3c(c2c1)Cc1ccccc1-3 [8-Methoxy-DHII, 5,10-Dihydro-8-methoxyindeno[1,2-b]indole] | 6.2 |  | 
Cc1cc(C)c2[nH]c3c(c2c1)Cc1ccccc1-3 [6,8-Dimethyl-DHII, 5,10-Dihydro-6,8-dimethylindeno[1,2-b]indole] | 6.1 |  | 
